Experimental findings from US20210386754A1, “COMPOSITIONS AND METHODS FOR TREATING ATHEROSCLEROTIC VASCULAR DISEASE” (AUGUSTA UNIVERSITY RESEARCH INSTITUTE, INC., priority 2020, published 2021) are described below.

SMILES strings stand for the structures. Entries after “also recorded” stand apart in the source; their conditions may differ.

Experiment [1] relates to RAW 264.7 macrophages. As to the kind of experiment: Clathrin-mediated endocytosis of FITC-transferrin. The experiment is classed as cell-based. The following applies: EIPA 25 μM, 1 hr; FITC-transferrin 1 μg/ml. The procedure: (§1) Clathrin- and caveolin-mediated endocytosis: Receptor-mediated uptake of FITC-transferrin (1 μg/mL; clathrin-mediated endocytosis) and Alexa Fluor 488-albumin ([…]; caveolin-mediated endocytosis) was investigated in RAW 264.7 macrophages following their incubation with ±EIPA (25 μM; 1 hour pre-incubation). Fluorescence intensity was measured using the FL1 channel for FITC and Alexa Fluor 488 (Ex: 488 nm, Em: 530 nm).

The test system of the next experiment is Wild type BMDM. As to the kind of experiment: Cytokine secretion, LEGENDplex bead-based immunoassay. The experiment is classed as cell-based, mouse. The procedure: Wild type BMDM were incubated with vehicle or treated with EIPA (25 μM, 24 hours). Cytokine secretion into the media was quantified using the LEGENDplex™ (mouse inflammation panel) bead-based immunoassay according to the manufacturer's instructions (BioLegend, San Diego, Calif., USA). Data were acquired using four-color BD FACSCalibur (BD Biosciences, San Jose, Calif., USA) and analyzed using the LEGENDplex Data Analysis software (BioLegend).

The subject of experiment [2] is RAW 264.7 macrophages. The experiment is described as follows: Caveolin-mediated endocytosis of Alexa Fluor 488-albumin. The format is cell-based. Particulars: EIPA 25 μM, 1 hr; AF488-albumin 1 μg/ml. The protocol: as §1
In experiment [3] the test system is human aortic endothelial cells. As to the kind of experiment: qRT-PCR of SR-B1 mRNA expression. The format is cell-based. Particulars: EIPA 25 μM, 24 hr. For orientation: Real-time PCR tracks product formation cycle by cycle.
In experiment [4] the test system is THP-1 monocytes on human aortic endothelial cells. The experiment is described as follows: Monocyte adhesion assay. The format is cell-based. Particulars: EIPA 25 μM; HAEC TNFα 10 ng/ml, 4 hr. The procedure: Adhesion studies were performed using the human monocyte cell line THP-1. Vehicle- or EIPA (25 μM, 24 hours)-treated THP-1 monocytes were labeled using Vybrant™ CFDA SE Cell Tracer Kit (ThermoFisher). Human aortic endothelial cell monolayers grown on coverslips in a 24-well plate were treated with vehicle (PBS) or TNFα (10 ng/ml) for 4 hours. Endothelial cells were labeled with Cell Tracker™ Deep Red Dye (ThermoFisher). Fifty microliter of THP-1 monocyte suspension containing 1×10^6 cells was added to each well of endothelial cells, and the plates were gently agitated and placed in a cell culture incubator for 1 hour. At the end of the incubation period, the monolayer was gently washed three times with cold PBS. After the final wash, coverslips were stained with Hoechst 33342 (ThermoFisher) and mounted onto slides using mounting medium. Fluorescent signals were detected using a Zeiss 780 upright confocal microscopy. Quantification was completed with Image-Pro Plus software (Media Cybemetics, Bethesda, Md., USA).

Experiment [5] has as its system F4/80+ macrophages of atherosclerotic ApoE-/- aorta. The experiment is described as follows: In vivo DiI-nLDL uptake by macrophages of atherosclerotic arteries. The arrangement: species or system mouse. Particulars: EIPA 25 mg/kg/day, i.p. for 3 days; DiI-nLDL 100 μg retro-orbitally; 12 weeks Western diet. The protocol: Isolation of macrophages from atherosclerotic arteries: 8-10-week-old ApoE^−/− mice were fed a Western diet for 12 weeks. Mice were treated with vehicle or EIPA (25 mg/kg/day, i.p.) for 3 days. On the day of sacrifice, mice were retro-orbitally injected with vehicle or 100 μg Dil-nLDL. After 4 hours, mice were anaesthetized and perfused with ice-cold PBS for 5 min and the entire thoracic aorta with LCA was isolated. Following removal of the adventitia, macrophages were isolated using the Neonatal Heart Dissociation Kit (Miltenyi Biotech.) and CD11b microbeads (Miltenyi Biotech.). Cells were stained with anti-F4/80-APC (clone BM8) or IgG control antibodies (Biolegend). Dil fluorescence was measured in F4/80-positive macrophages [Dil (Ex: 549 nm, Em: 565 nm) and APC (Ex: 640 nm, Em: 670 nm)].

The test system of the next experiment is ApoE-/- mice. As to the kind of experiment: Atherosclerosis model: ApoE-/- mice, partial LCA ligation, Western diet. Particulars: male ApoE-/- mice, Western diet 4 weeks, EIPA via subcutaneously implanted minipump. The format is in vivo, mouse.

For `CCN(c1nc(N)c(C(=O)N=C(N)N)nc1Cl)C(C)C` [EIPA, 5-(N-ethyl-N-isopropyl)amiloride], the clathrin-mediated transferrin endocytosis entry in the experiment on RAW 264.7 macrophages [1] is listed as “without inhibiting; also recorded: does not inhibit”. This compound also gave an IL-6 secretion in the experiment on Wild type BMDM (EIPA 25 μM, 24 hours, n = 3, vehicle 2.40 ± 0.58) of 1.82 ± 0.40 pg/mL. Also, in the experiment with Wild type BMDM (EIPA 25 μM, 24 hours, n = 3, vehicle 7.83 ± 1.89), the TNFα secretion was found to be 4.76 ± 0.77 pg/mL. Further, the MCP-1 secretion with Wild type BMDM (EIPA 25 μM, 24 hours, n = 3, vehicle 38.04 ± 6.03) was 22.19 ± 2.30 pg/mL. The “macrophage secretion of TNF-α, MCP-1, and IL-6” value with Wild type BMDM (in the absence of exogenous lipids) is reported as “does not inhibit”. Further, the caveolin-dependent albumin internalization entry with RAW 264.7 macrophages [2] is given as “without inhibiting; also recorded: does not inhibit”. In addition, the “SR-B1 mRNA levels” value in experiment [3] is on record as “does not increase”. For the same compound, in experiment [4], the “monocyte adhesion to TNFα-treated endothelial cells” value is given as “does not inhibit”. The “DiI-LDL uptake by F4/80+ macrophages in atherosclerotic arteries” value in experiment [5] is given as “substantially inhibited”. Further, in the experiment on ApoE-/- mice, the “atherosclerosis (ORO positive area, LCA)” value is reported as “inhibited atherosclerosis; also recorded: attenuates”.
